Test results: patent publication US3959363A, “15-Ethynyl-PFG2β” (American Home Products Corporation, priority 1974, dated 1976)

Legend:
[1] = Hypotensive effect in the anesthetized dog, intravenous route; assay type: in vivo; settings: dose 100 μg/kg
Protocol: In the use of the compounds of the invention to produce hypotensive effects in warm-blooded animals, administration by the injectable route is preferred, preferably the intravenous route.
Thus in the anesthetized dog by the intravenous route the dose to produce hypotension is from about 1 μg/kg. to about 200 μg/kg. and preferably from about 10 μg/kg. to about 100 μg/kg. Using this procedure the following results were obtained.

[2] = system: bronchoconstricting effects of a standard dose of acetylcholine; assay: Bronchodilation upon aerosol inhalation in the guinea pig (method of Rosenthale et al.): inhibition of acetylcholine bronchoconstriction; assay type: in vivo
Description: In using the compounds of the invention to produce bronchodilating effects in warm-blooded animals, they may be administered in a variety of dosage forms: oral, injectable, and aerosol inhalation. Aerosol inhalation is a preferred method because of its rapid onset of action, great potency, and specificity of action. The particular dosage to obtain the bronchodilating effect will vary with the particular compound employed, the particular animal involved, and the degree of bronchodilation desired. In the guinea pig, by aerosol inhalation, the dose to produce bronchodilation is from about 0.015 micrograms to about 50 micrograms, and preferably from about 0.015 to about 25 micrograms. The bronchodilation produced upon aerosol inhalation can be observed by the method of Rosenthale et al., J. Pharmacol. Exp. Ther., 178, 541 (1971). Using this procedure the following result was obtained.

C#C[C@@](O)(/C=C/[C@@H]1[C@@H](C/C=C\CCCC(=O)O)[C@H](O)C[C@H]1O)CCCCC [7-(2β-[(3S)-3-Ethynyl-3-Hydroxy-Trans-1-Octenyl]-3α,5β-Dihydroxy-1α-cyclopentyl)-Cis-5-Heptenoic Acid]
Δb.p. [1]: -16 mm. Hg | Percent Inhibition of the bronchoconstricting effects of a standard dose of acetylcholine ([2]; dose 1.5 μg): 64% | Percent Inhibition of the bronchoconstricting effects of a standard dose of acetylcholine ([2]; dose 15 μg): 78%
